A word on the LD50: it is the dose at which mortality reaches 50%. Broadly, the half-life is how long it takes for the measured level to halve.

These results are taken from patent US9579406B2, “Phospholipid ether analogs as agents for detecting and locating cancer, and methods thereof” (Cellectar, Inc., priority 2004, dated 2017).

Entries after “also recorded” stand apart in the source; their conditions may differ. Like-named read-outs stand apart in the source and are kept apart here. Where only a bound is given, the exact number is not on record here.

The target of data set [1] is T1, Phospholipase C (PLC) (Bacillus cereus, UniProt P09598).
T1 construct: PLC isolated from Bacillus cereus; host or cells: Bacillus cereus (natural source)
The experiment in a line: PLC substrate assay. The format is biochemical. As for the experimental part: Formal metabolism studies were conducted on several PLE analogs including NM324, the predecessor of NM404. In these studies, each agent was examined to determine their ability to serve as substrates for enzymes associated with PLE metabolism. Three major enzymatic pathways are involved in the metabolism of PLE. O-Alkyl glycerol monooxygenase (AGMO) is responsible for cleavage of the alkyl ether linkage at C-1 to form either the long chain fatty alcohol or subsequently, the corresponding fatty acid. Phospholipases C (PLC) and D (PLD), on the other hand, give rise to the glycerol or phosphatidic acid products, respectively.

For data set [2] the following is noted: rats, cited from earlier work.
The subject of data set [3] is carrageenan-induced granulomas. The experiment in a line: Uptake in carrageenan-induced granulomas. Also noted: species or system rats. As to conditions: rat, in vivo. The source says: This lack of specificity is a significant clinical issue in patients with cancer.
Data set [4] deals with MAT LyLu cells. The data set is described as follows: Gamma camera scintigraphy in rat Dunning R3327 (MAT LyLu) prostate cancer model. The following applies: tumor-bearing rats, 24 and 48 hours post injection.
Excerpt: The MatLyLu (Dunning R3327 rat) model, a rat prostate tumor line, was used specifically to screen 9 specific analogs prior to entering them into control for dosimetry and tumor-bearing animals for determining tumor/background ratios.
In order to expedite the screening process and minimize the number of tumor bearing animals utilized in multiple time point tissue distribution studies, new radioiodinated homologs were imaged by gamma camera scintigraphy in the rat Dunning R3337 (MAT LyLu strain) prostate cancer model. […] Gamma camera images were obtained at multiple time points including 24 and 48 hours post injection.
The new PLE analogs were synthesized and radiolabeled with ^125I for initial image analysis in Copenhagen rats bearing Dunning R3327 prostate tumors.
Data set [5] relates to Walker-256 carcinosarcoma. The experiment in a line: Tissue distribution of radioactivity in rats bearing Walker-256 carcinosarcoma. The format is in vivo, rat.
Data set [6] deals with serum proteins. As to conditions: cited from earlier work.
For data set [7] the following is noted: cited from earlier work.
For data set [8] the following is noted: mouse; cited from earlier work.
Data set [9] deals with several animal tumor models. The experiment in a line: Animal tumor localization studies with first generation PLE analogs. The format is in vivo. The following applies: iodine-125 labeled; Walker 256, Lewis mammary, Dunning R3327, Vx2, human xenografts. The source says: Phospholipid ethers can easily be labeled with iodine radioisotopes using radiolabeling methods developed in the labs. The iodophenyl phospholipid ether analogs are specifically designed so that the radioiodine affixed to each molecule is stable to facile in vivo deiodination. […] The inventors have now synthesized over 20 radiolabeled PLE compounds and tested in vitro and in vivo. […] Optimal tumor localization of these agents takes from one to several days due to the more rapid clearance of the radioactivity from normal tissues relative to tumor.
(A xenograft is tissue or cells of one species grown in another, often human tumour cells in immunodeficient mice.)

Data set [10] can be described thus: MIRD extrapolation of rat tissue distribution data to permissible human dose. Also noted: species or system human (from rat data). The source says: Accordingly the inventors have conducted the preliminary pharmacokinetic studies in human lung cancer patients at 1 mCi. Similar extrapolative calculation of the dosimetry for ^124I-NM404 afforded a similar 2 mCi dose level again based on projected dosimetry to the adrenals and bladder wall. Preliminary human data (5 patients), however, indicate very little uptake and retention of the agent into any abdominal organ (including the bladder and adrenals) with the exception of the liver which returns to background levels within 11 days.
Dosing of radioiodinated ^124I NM404 will be based on MIRD extrapolation of the iodine-131 dosimetry data derived from this ongoing study. The ^131I-NM404 dose is currently calculated as follows: Animal biodistribution data is used to determine the percentage of injected dose/organ at varying time points. These animal data are extrapolated to man by means of MIRD formalism (MIRDOSE PC v3.1) using standard conversion factors for differences in organ mass and anatomy between rat and standard man, providing predicted human organ doses; Based on these predicted doses, the permissible mCi dose to be injected into humans is determined using the maximal doses legally permitted by RDRC regulations for specific human tissue as defined in the Federal Register (21CFR Part 361.1) e.g. whole body, blood, blood forming tissues, eye lens, gonads—3 rem/dose; any other tissue—5 rem/dose. This approach was previously used to bring both NM324 and NM404 to clinical use, resulting in a calculated dose of 1 mCi.

Data set [11] has as its system lung cancer. The data set is described as follows: Initial clinical studies of NM-324 in lung cancer patients. The format is in vivo, human. The following applies: for liver radioactivity in patients: human, in vivo; for tumor uptake in cancer patients: scintigraphy.
In data set [12] the test system is rat mammary tumor. The experiment in a line: Biodistribution in rat mammary tumor model. The format is in vivo. Here is the method: In one such example in a rat mammary tumor model, tumor-to-normal tissue ratios reached a maximum at 96 hours with a tumor-to-blood ratio of 8.6 and tumor-to-muscle ratio of 20:1.
Extensive biodistribution data for the prototype agent ^125I-NM324 in several tumor models has previously been reported. […] For example, in a rat mammary tumor model, tumor-to-normal tissue ratios reached a maximum at 96 hours with a tumor-to-blood ratio of 8.6 and tumor-to-muscle ratio of 20:1. […] Comparative biodistribution data for NM324 and NM404 in SCID mice have been obtained in prostate and A549 lung cancer tumor models.

Data set [13] in a line: Blood plasma kinetics in rats. The format is in vivo. As to conditions: rat, read-out: elimination half life time in plasma (converted).
For data set [14], the system named is A549 lung, PC-3 prostate, c-myc pancreatic tumors. The experiment in a line: microPET imaging in lung, prostate and pancreatic mouse tumor models. The format is in vivo. The following applies: any time point. The source says: Human pharmacokinetic studies have confirmed this finding as only 4% of the agent is cleared renally within 4 days of iv injection (majority is excreted via GI route).

The test system of data set [15] is CNS-1 glioma brain tumor. The experiment in a line: microPET imaging in rat CNS-1 brain tumor model. The format is in vivo. As to conditions: 24 h after iv injection. Here is the method:
The inventors recently successfully radiolabeled NM404 twice with iodine-124 from a commercial vendor (Eastern Isotopes). The radiochemical yield (>60% mean isolated yield, >99% purity) was very similar to what we usually obtain with commercial sources of iodine-125 or 131 sodium iodide. The PET imaging characteristics of ^124I-NM404 in a rat CNS-1 brain tumor model (FIG. 24) was investigated. Imaging times in this preliminary study were limited to 24 h and 4 days post injection due to microPET scanner availability. […] These compounds may then be used for extending NM404 PET utility into human cancer patients.

The test system of data set [16] is non-small cell lung cancer. The following applies: human, in vivo.
Description: (§1) The preparation dispensed by the Nuclear Pharmacy will be certified as sterile and pyrogen-free. The subject will be monitored for adverse reactions during and after the infusion. Vital signs will be checked immediately after the infusion, and at 60 minute intervals up to four hours post-injection. They will be observed for adverse events throughout this time. […] Vital signs will be monitored at these times. Any adverse reactions experienced by the subjects will be recorded.
The test system of data set [17] is non-small cell lung cancer. The data set is described as follows: Planar gamma-camera scintigraphy with 131I-NM-404 in NSCLC patients. As to conditions: <1 mCi, n=3.
Description: as §1
The format of data set [18] is in vivo, human.

T1 sequence (P09598 39-283 limits assumed): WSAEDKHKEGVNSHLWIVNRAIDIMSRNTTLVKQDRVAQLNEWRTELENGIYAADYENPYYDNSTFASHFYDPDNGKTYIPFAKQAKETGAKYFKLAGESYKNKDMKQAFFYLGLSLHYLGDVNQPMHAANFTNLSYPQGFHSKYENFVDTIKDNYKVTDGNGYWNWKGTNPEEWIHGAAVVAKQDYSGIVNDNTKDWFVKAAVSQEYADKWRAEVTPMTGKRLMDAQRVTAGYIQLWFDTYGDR

`[3H]C(CCCCCC)C([3H])CCCCCCCC(=O)O[C@H](COC(=O)CCCCCCCCCCCCCCC)COP(=O)([O-])OCC[N+](C)(C)C` (stereo partly drawn) [DPPC, 1-palmitoyl-2-[3H]-palmitoyl-L-3-phosphatidylcholine]: the “hydrolysis by PLC” value in data set [1] is “underwent significant hydrolysis”.

As to `CCCCCCCCCCCCCCCCOP(=O)([O-])OCC[N+](C)(C)C` [Miltefosine, hexadecyl phosphocholine], in data set [2] (over a 4-week period), the maximum tolerated dose is 39 nmol/kg. Moreover, the LD50 in [2] is 606 nmol/kg.

Regarding `O=C([O-])CC(O)(CC(=O)[O-])C(=O)[O-].[Ga+3]` [Gallium citrate, reference compound], in [3], the “uptake and retention in granulomas” value is listed as “did indeed concentrate significantly in the granulomatous lesions”.

On to `C[N+](C)(C)CCOP(=O)([O-])OCCCCCCCCCCCCc1ccc(I)cc1` [NM-346], for which the “tumor uptake and liver/abdominal radioactivity by gamma camera imaging” value in data set [4] is on record as “readily visualized”.

For `C[N+](C)(C)CCOP(=O)([O-])OCCCCCCCCCCCCCCCc1ccc(I)cc1` [NM-397], the “increase in tumor uptake versus C12 analog 4” value in data set [5] (24 h) is given as 2 fold. Besides, in data set [5] (48 hours after administration), the “radioactivity in the duodenum (maximum)” value was found to be 1.38±0.24 % ID/g and the “radioactivity in the tumor (peak)” value is reported as 1.65±0.23 % of ID/g. For the same compound, the blood levels in data set [5] (120 hours) is given as 0.07±0.00 % of ID/g. For the same compound, the “time of peak tumor radioactivity” value in [5] (after administration) was found to be 48 h. Moreover, the “tumor uptake and liver/abdominal radioactivity by gamma camera imaging” value in data set [4] is “readily visualized”.

On to `CCCCCCCCCCCCCCCCCCOCC(COP(=O)([O-])OCC[N+](C)(C)C)OC` (stereo not drawn) [ET-18-OCH3], for which, in [6], the “ether lipid bound to HDL” value was “about 6%” and the “ether lipid bound to albumin” value is reported as 71%. For the same compound, in data set [7] (intravenous), the maximum tolerated dose was 50 mg/kg. Moreover, the adverse effects reported entry in data set [7] (up to 4 hours post-injection) is “pulmonary edema impaired hepatic function and hemolysis”. The “LD50 (oral)” value in [8] was 200 mg/kg.

For `C[N+](C)(C)CCOP(=O)([O-])OCCCCCCCCCCCCc1cccc(I)c1` [NM-324, 12-(3-iodophenyl)-dodecylphosphocholine], the “uptake and retention in granulomas” value in [3] was “no uptake and retention”. Moreover, the tumor localization result in [9] is “selectively localized in tumors over time”. Moreover, the “calculated dose for clinical use” value in [10] is recorded as 1 mCi. The “liver radioactivity in patients” value in data set [11] is listed as “high liver radioactivity”; in [11] (listed as NM324), “unacceptable accumulation in liver tissue”. Further, in data set [11] (images 6 h post injection, lung cancer patient), the lung tumor uptake result is listed as “intense lung tumor uptake”. Also, the “tumor uptake in cancer patients” value was “excellent tumor uptake” in [11] and “Uptake is seen in the left lingular lung cancer (T) with increasing tumor-to-background ratios over time” in data set [11] (listed as 131I-NM-324). In addition, the tumor-to-blood ratio in data set [12] (96 hours) is 8.6. Besides, the “time of maximum tumor-to-normal tissue ratios” value in [12] (rat, in vivo) turned out to be 96 h. Besides, in [13], the half-life is 2.43 h.

Regarding `COC(COCCCCCCCCCCCCCCCCCCc1ccc(I)cc1)COP(=O)([O-])OCC[N+](C)(C)C` (racemic) [NM-410, 1-O-[18-(p-Iodophenyl)octadecyl]-2-O-methyl-rac-glycero-3-phosphocholine], the “tumor uptake and liver/abdominal radioactivity by gamma camera imaging” value in data set [4] was “high hepatic uptake, significant abdominal accumulation and retention or poor tumor uptake and retention; also recorded: high radioactivity levels in the liver and abdomen with little to no uptake of the agent into tumors”; in [4] (listed as 10), “retarded tumor uptake significantly”.

On to `C[N+](C)(C)CCOP(=O)([O-])OCCCOCCCCCCCCCCCCCCCCCCc1ccc(I)cc1` [NM-412, 1-O-[18-(p-Iodophenyl)octadecyl]-1,3-propanediol-3-phosphocholine], for which the “tumor uptake and liver/abdominal radioactivity by gamma camera imaging” value in [4] was “high levels of liver and abdominal radioactivity; also recorded: tumor uptake accompanied by high liver and abdominal radioactivity levels”; in [4] (listed as 8), “fairly high levels of liver and abdominal radioactivity”.

In the case of `C[N+](C)(C)CCOP(=O)([O-])OCCCCCCCCCCCCCCCCCCc1ccc([124I])cc1` [^124I-NM404], in data set [10] (124I label), the “dose level based on projected dosimetry to the adrenals and bladder wall” value was 2 mCi. In [14], the bladder activity entry is reported as “lack of bladder activity at any time point; also recorded: No bladder activity was evident at any time point”. For the same compound, the “tracer uptake in brain tumor and surrounding brain” value in data set [15] is listed as “intense uptake of the tracer in the brain tumor accompanied by little or no uptake in surrounding intact brain tissue”.

For the compound `C[N+](C)(C)CCOP(=O)([O-])OCCCCCCCc1ccc(I)cc1` [NM-396], in [5] (24 hours), the “radioactivity in all of the organs surveyed” value is recorded as less than 0.10 % ID/g and the “radioactivity in the thyroid” value is reported as 213 % ID/g. Moreover, the “localization in tumor tissue” value in data set [5] (all time points examined) was “did not localize in tumor tissue at any of the time points examined”.

In the case of `C[N+](C)(C)CCOP(=O)([O-])OCCCCCCCCCCCCCCCCCCc1ccc([131I])cc1` [^131I-NM404], in data set [16], the “crossing of the blood brain barrier” value is listed as “doesn't cross the intact blood brain barrier”. Besides, the “tumor uptake and retention” value in data set [17] is “tumor uptake and prolonged retention in the primary lung tumors”. For the same compound, the “time for liver to return to background levels” value in [18] (5 patients) is no more than 11 days. In data set [18] (advanced non-small cell lung cancer subjects), the “dose level safe to administer” value was found to be 0.0003 mg/kg. Further, the safety result in data set [18] (first-in-human pharmacokinetic studies) is listed as “safe”. The starting maximum dose result in data set [10] is listed as “around 1.9 mCi”. Moreover, the “5 Rad limiting dose to the adrenals and bladder wall” value in data set [10] (131I label) is 2 mCi.

On to `COC(COCCCCCCCCCCCCc1cccc([125I])c1)COP(=O)([O-])OCC[N+](C)(C)C` (stereo not drawn) [NM-294], for which the tumor localization entry in data set [9] is recorded as “selectively localized in tumors over time”.
